Results: patent US12415786B2, “Substituted 2-heteroarylaminobenzenes and the salts thereof and their use as herbicidal agents” (Bayer Aktiengesellschaft, priority 2019, dated 2025)

Experiments:
Type in all cases: in vivo
Stellaria media [1] = experiment: Herbicidal post-emergence action (greenhouse pots), STEME; conditions: 1280 g/ha, visual rating about 3 weeks after treatment vs untreated controls
Method in brief: (§1)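 Activity is a visual percentage score (0% = like untreated controls, 100% = plants died) taken about 3 weeks after treatment. Plants grown in sandy loam under greenhouse conditions received 1280 g/ha onto green parts at the one-leaf stage, formulated as WP or EC with 0.5% additive.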

Lolium rigidum [2] = experiment: Herbicidal pre-emergence action (greenhouse pots), LOLRI; conditions: 1280 g/ha, visual scoring after about 3 weeks vs untreated controls
Method in brief: (§2)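 Weed seeds were sown in sandy loam and covered with soil. Compounds formulated as WP or EC were applied to the covering soil surface as aqueous suspension or emulsion with 0.5% additive at 600 L/ha water, 1280 g/ha. After about 3 weeks in the greenhouse, damage was scored visually as % versus untreated controls.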

Stellaria media [3] = experiment: Herbicidal pre-emergence action (greenhouse pots), STEME; conditions: 1280 g/ha, visual scoring after about 3 weeks vs untreated controls
Method in brief: as §2

Abutilon theophrasti [4] = experiment: Herbicidal post-emergence action (greenhouse pots), ABUTH; conditions: 1280 g/ha, visual rating about 3 weeks after treatment vs untreated controls
Method in brief: as §1

Poa annua [5] = experiment: Herbicidal post-emergence action (greenhouse pots), POAAN; conditions: 1280 g/ha, visual rating about 3 weeks after treatment vs untreated controls
Method in brief: as §1

Matricaria inodora [6] = experiment: Herbicidal post-emergence action (greenhouse pots), MATIN; conditions: 1280 g/ha, visual rating about 3 weeks after treatment vs untreated controls
Source text: (§3) In the examples and tables below, the following abbreviations are used: • Undesired Plants/Weeds: • ABUTH: Abutilon theophrasti • AGSTE: Agrostis tenuis • AMARE Amaranthus retroflexus • ECHCG: Echinochloa crus-galli • LOLRI: Lolium rigidum • MATIN: Matricaria inodora • POAAN: Poa annua • SETVI: Setaria viridis • STEME: Stellaria media A. Herbicidal Early Post-Emergence Action Seeds of mono- and dicotyledonous weed plants were placed in plastic pots in sandy loam soil (doubly sown with in each case one species of mono- or dicotyledonous weed plants per pot), covered with soil and cultivated in a greenhouse under controlled growth conditions. 2 to 3 weeks after sowing, the test plants were treated at the one-leaf stage. The compounds of the invention, formulated in the form of wettable powders (WP) or as emulsion concentrates (EC), were applied onto the green parts of the plants as aqueous suspension or emulsion with addition of 0.5% additive at a water application rate of 600 liters per hectare (converted). After the test plants had been kept in the greenhouse under optimum growth conditions for about 3 weeks, the activity of the preparations was rated visually in comparison to untreated controls. For example, 100% activity=the plants have died, 0% activity=like untreated control plants. Tables B1-B8 below show the effects of selected compounds of the general formula (I) according to Table 1 above on various harmful plants and an application rate corresponding to 1280 g/ha, which were obtained by the experimental procedure mentioned above.

Echinochloa crus-galli [7] = experiment: Herbicidal pre-emergence action (greenhouse pots), ECHCG; conditions: 1280 g/ha, visual scoring after about 3 weeks vs untreated controls
Method in brief: as §2

Setaria viridis [8] = experiment: Herbicidal pre-emergence action (greenhouse pots), SETVI; conditions: 1280 g/ha, visual scoring after about 3 weeks vs untreated controls
Method in brief: as §2

Poa annua [9] = experiment: Herbicidal pre-emergence action (greenhouse pots), POAAN; conditions: 1280 g/ha, visual scoring after about 3 weeks vs untreated controls
Method in brief: as §2

Amaranthus retroflexus [10] = experiment: Herbicidal post-emergence action (greenhouse pots), AMARE; conditions: 1280 g/ha, visual rating about 3 weeks after treatment vs untreated controls
Method in brief: as §1

Poa annua [11] = experiment: Herbicidal early post-emergence action (96-well microtiter plates), POAAN; conditions: 1900 g/ha, scored 9 to 12 days after treatment, 100% = plants have died, 0% = like untreated control plants
Method in brief: (§4)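 Weed seeds grown in quartz sand in 96-well microtiter plates in a climate chamber and treated at the cotyledon stage, 5 to 7 days after sowing, with EC formulations at 2200 L/ha water and a rate equivalent to 1900 g/ha. Visual scoring after 9 to 12 days against untreated controls (0% = control, 100% = dead).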

Echinochloa crus-galli [12] = experiment: Herbicidal post-emergence action (greenhouse pots), ECHCG; conditions: 1280 g/ha, rated after about 3 weeks, 100% = plants have died, 0% = like untreated control plants
Method in brief: as §1

Amaranthus retroflexus [13] = experiment: Herbicidal pre-emergence action (greenhouse pots), AMARE; conditions: 1280 g/ha, visual scoring after about 3 weeks vs untreated controls
Method in brief: as §2

Agrostis tenuis = experiment: Herbicidal early post-emergence action (96-well microtiter plates), AGSTE; conditions: 1900 g/ha, scored 9 to 12 days after treatment, 100% = plants have died, 0% = like untreated control plants
Method in brief: as §4

Setaria viridis [14] = experiment: Herbicidal post-emergence action (greenhouse pots), SETVI; conditions: 1280 g/ha, rated after about 3 weeks, 100% = plants have died, 0% = like untreated control plants
Method in brief: as §1

Lolium rigidum [15] = experiment: Herbicidal post-emergence action (greenhouse pots), LOLRI; conditions: 1280 g/ha, rated after about 3 weeks, 100% = plants have died, 0% = like untreated control plants
Source text: as §3

Abutilon theophrasti [16] = experiment: Herbicidal pre-emergence action (greenhouse pots), ABUTH; conditions: 1280 g/ha, visual scoring after about 3 weeks vs untreated controls
Method in brief: as §2

Matricaria inodora [17] = experiment: Herbicidal pre-emergence action (greenhouse pots), MATIN; conditions: 1280 g/ha, visual scoring after about 3 weeks vs untreated controls
Method in brief: as §2

SMILES: N#Cc1cccc(Nc2ncc(F)cn2)c1Oc1ccc(F)nc1 [Example 3-53]
- herbicidal activity STEME (Stellaria media [1]): 100%
- herbicidal activity LOLRI (Lolium rigidum [2]): 100%
- herbicidal activity STEME (Stellaria media [3]): 100%
- herbicidal activity ABUTH (Abutilon theophrasti [4]): 100%
- herbicidal activity POAAN (Poa annua [5]): 100%
- herbicidal activity MATIN (Matricaria inodora [6]): 90%
- herbicidal activity ECHCG (Echinochloa crus-galli [7]): 100%
- herbicidal activity SETVI (Setaria viridis [8]): 100%
- herbicidal activity POAAN (Poa annua [9]): 100%
- herbicidal activity AMARE (Amaranthus retroflexus [10]): 100%
- POAAN (herbicidal activity, scored visually in comparison to untreated controls) (Poa annua [11]): 100%
- ECHCG (herbicidal activity, rated visually in comparison to untreated controls) (Echinochloa crus-galli [12]): 100%
- herbicidal activity AMARE (Amaranthus retroflexus [13]): 100%
- AGSTE (herbicidal activity, scored visually in comparison to untreated controls) (Agrostis tenuis): 100%
- SETVI (herbicidal activity, rated visually in comparison to untreated controls) (Setaria viridis [14]): 90%
- LOLRI (herbicidal activity, rated visually in comparison to untreated controls) (Lolium rigidum [15]): 90%
- herbicidal activity ABUTH (Abutilon theophrasti [16]): 100%
- herbicidal activity MATIN (Matricaria inodora [17]): 100%
